≈ marks a conversion by molar mass, not a printed value.

Assay type in all cases: functional
Assay [1] can be described thus: Antiinflammatory activity in […] cells assessed as reduction in LPS-induced TNF-alpha release at 10 uM pre incubated for 1 hr followed by LPS stimulation and measured after 30 mins by ELISA. On the technique in general: In an ELISA, binding on a coated surface is turned into a signal by an enzyme label.
Assay [2] can be described thus: Antiinflammatory activity in […] cells assessed as reduction in LPS-induced NOX release at 10 uM pre incubated for 1 hr followed by LPS stimulation and measured after 30 mins by ELISA.
The nature of assay [3]: Antiinflammatory activity in […] cells assessed as reduction in LPS-induced IL-6 release at 10 uM pre incubated for 1 hr followed by LPS stimulation and measured after 30 mins by ELISA.
Assay [4] deals with Escherichia coli. Kind of assay: Antibacterial activity against Escherichia coli ATCC 12701 assessed as bacterial clearance incubated for 6 to 24 hrs by microbroth dilution method. As to conditions: time 6-24 hrs. (In broth dilution the organism is exposed to a series of concentrations in liquid medium.)
Assay [5] has as its system Staphylococcus aureus. Kind of assay: Antibacterial activity against Staphylococcus aureus ATCC 6538 assessed as bacterial clearance incubated for 6 to 24 hrs by microbroth dilution method. As to conditions: time 6-24 hrs.
Assay [6] deals with Pseudomonas aeruginosa. Kind of assay: Antibacterial activity against Pseudomonas aeruginosa ATCC 10145 assessed as bacterial clearance incubated for 6 to 24 hrs by microbroth dilution method. The note with it: time 6-24 hrs.

Take `COc1ccc(-c2nc(NCCOCCOCCN)nc(NCC3CCCO3)n2)cc1` (centres undefined): the inhibition at 10 µM came to 10.1% in assay [1], 38.4% in assay [2] and 50.1% in assay [3].
In the same order, the values of `Cc1ccc(CNc2nc(NCCOCCOCCN)nc(-c3ccc(C(C)(C)C)cc3)n2)cc1` are 35.9%, 15.3% and 33.3%.
With GENTAMICIN, the figures for the MIC=>80 in assay [4], in assay [5] and in assay [6] were 0.99 mg/L, 0.5 mg/L and 7.94 mg/L, respectively.
On to `NCCOCCOCCNc1nc(NCC2CCCO2)nc(-c2ccc(Cl)cc2)n1` (centres undefined), for which the inhibition at 10 µM in assay [1] is 25.3%; in assay [2] it was 30.7%; in assay [3], 33.3%.
In the case of `CC(C)(C)c1ccc(-c2nc(NCCCOCCOCCCN)nc(NCC3CCCO3)n2)cc1` (centres undefined), the inhibition at 10 µM stood at 13.8% in assay [1], 19.1% in assay [2] and 22.3% in assay [3].
In the same order, the values of `CC(C)(C)c1ccc(-c2nc(NCCOCCOCCN)nc(Nc3ccc(Cl)cc3)n2)cc1` are 33.7%, 34.2% and 32.5%.
Consider `CC(C)(C)c1ccc(Nc2nc(NCCOCCOCCN)nc(-c3ccc(C(C)(C)C)cc3)n2)cc1`, for which the inhibition at 10 µM in assay [1] is 23.2%; in assay [2], 29.2%; in assay [3], 32.8%.
In the same order, the values of `CC(C)(C)c1ccc(-c2nc(NCCOCCOCCN)nc(NCCc3ccccc3)n2)cc1` are 25.3%, 23% and 40.2%.
Regarding `CC(C)(C)c1ccc(-c2nc(NCCOCCOCCN)nc(NCc3ccc(F)cc3)n2)cc1`, the results for the inhibition at 10 µM in assay [1], in assay [2] and in assay [3] were 30.1%, 46.1% and 53.3%, respectively.
On to `C=CCNc1nc(NCCOCCOCCN)nc(-c2ccc(C(C)(C)C)cc2)n1`, for which the inhibition at 10 µM in assay [1] came out at 23.4%; in assay [2] it was 29.2%; in assay [3], 32.6%.
For `CC(C)(C)c1ccc(-c2nc(NCCOCCOCCN)nc(NCc3ccco3)n2)cc1`, the inhibition at 10 µM stood at 15.6% in assay [1], 44.7% in assay [2] and 40.1% in assay [3].
As for `CC(C)(C)c1ccc(-c2nc(NCCOCCOCCN)nc(NCc3ccc(Cl)cc3)n2)cc1`, the inhibition at 10 µM in assay [1] is 15.2%; in assay [2], 38.4%; in assay [3] it was 50%.
Take `Cc1cccc(CNc2nc(NCCOCCOCCN)nc(-c3ccc(C(C)(C)C)cc3)n2)c1`: the inhibition at 10 µM in assay [1] was 25.3%; in assay [2], 41.6%; in assay [3], 56.7%.
With `CC(C)(C)c1ccc(-c2nc(NCCOCCOCCN)nc(NCc3cccc(F)c3)n2)cc1`, the results for the inhibition at 10 µM in assay [1], in assay [2] and in assay [3] were 35.6%, 38.5% and 46.7%, respectively.
As for `CC1(C)S[C@@H]2[C@H](NC(=O)[C@H](N)c3ccccc3)C(=O)N2[C@H]1C(=O)O` [AMPICILLIN], the results for the MIC80 in assay [4], in assay [5] and in assay [6] were 1.98 mg/L (≈ 5.67 µM), 0.25 mg/L (≈ 0.715 µM) and 0.99 mg/L (≈ 2.83 µM), respectively.
Turning to `Cc1ccc(-c2nc(NCCOCCOCCN)nc(NCC3CCCO3)n2)cc1` (centres undefined), the inhibition at 10 µM in assay [1] was 50.1%; in assay [2] it was 40%; in assay [3], 50%.
In the case of `NCCOCCOCCNc1nc(NCC2CCCO2)nc(-c2ccc(OC(F)(F)F)cc2)n1` (centres undefined), the inhibition at 10 µM is 10.9% in assay [1], 38.4% in assay [2] and 16.7% in assay [3].
For `NCCOCCOCCNc1nc(NCC2CCCO2)nc(-c2ccc(F)cc2)n1` (centres undefined), in that order: 15.1%, 23% and 33.4%.
For `CC(C)(C)c1ccc(-c2nc(NCCOCCN)nc(NCC3CCCO3)n2)cc1` (centres undefined), in that order: 13.3%, 33.1% and 22.1%.
Regarding `CC(C)(C)c1ccc(-c2nc(NCCOCCOCCOCCN)nc(NCC3CCCO3)n2)cc1` (centres undefined), the results for the inhibition at 10 µM in assay [1], in assay [2] and in assay [3] were 13.4%, 19.5% and 22.2%, respectively.
As to `CC(C)(C)c1ccc(CNc2nc(NCCOCCOCCN)nc(-c3ccc(C(C)(C)C)cc3)n2)cc1`, the inhibition at 10 µM in assay [1] worked out at 55.2%; in assay [2] it was 38.4%; in assay [3] it was 46.7%.
For `NCCOCCOCCNc1nc(NCC2CCCO2)nc(-c2ccccc2)n1` (centres undefined), in that order: 10.6%, 30.7% and 26.7%.
Consider `Cc1onc(-c2ccccc2)c1C(=O)N[C@@H]1C(=O)N2[C@@H]1SC(C)(C)[C@@H]2C(=O)O` [OXACILLIN], for which the MIC80 in assay [4] was 0.25 mg/L (≈ 0.623 µM); in assay [5] it was 0.06 mg/L (≈ 0.149 µM); in assay [6] it was 1.98 mg/L (≈ 4.93 µM).
In the case of `CC(C)(C)c1ccc(-c2nc(NCCOCCOCCN)nc(NCC3CCCCC3)n2)cc1`, the inhibition at 10 µM in assay [1] was 36.4%; in assay [2], 21.5%; in assay [3] it was 24.7%.
For `CC(C)(C)c1ccc(-c2nc(NCCOCCOCCN)nc(NCc3ccccc3)n2)cc1`, in that order: 10.7%, 38.5% and 50%.
In the same order, the values of `CC(C)(C)c1ccc(-c2nc(NCCOCCOCCN)nc(NCC3CCCCO3)n2)cc1` (centres undefined) are 10.4%, 46.1% and 56.7%.
Turning to `NCCOCCOCCNc1nc(NCC2CCCO2)nc(-c2ccc(C(F)(F)F)cc2)n1` (centres undefined), the inhibition at 10 µM in assay [1] stood at 10.1%; in assay [2], 46.1%; in assay [3], 23.4%.
For `CC(C)(C)c1ccc(-c2nc(NCCOCCOCCN)nc(NCc3cccc(Cl)c3)n2)cc1`, in that order: 50.1%, 41.5% and 43.3%.

As a reminder, the inhibition is the relative decrease from the control value, in per cent. One may read the MIC80 as an inhibitory concentration at the 80% level, which refers to growth in some studies and to a panel of isolates in others.

Source of the values: ChEMBL document CHEMBL5038645, “Discovery of Mycobacterium tuberculosis Rv3364c-Derived Small Molecules as Potential Therapeutic Agents to Target SNX9 for Sepsis” (J Med Chem, 2022).
